Target: T1, Smo (Mus musculus, UniProt P56726)
T1 construct: endogenous in cells; host or cells: NIH-3T3 cells stably carrying the Gli luciferase reporter
Assay: Gli reporter luciferase assay in NIH-3T3/Gli reporter cells stimulated with mouse Shh-N end fragment
Assay type: cell-based
Settings: NIH3T3, 1 μM compound, mouse Shh-N end fragment supernatant, 48 hr, luciferase activity, control without compound as 100, read-out: inhibitory rate (%) at 1 μM
Procedure: Gli reporter plasmid was constructed by inserting 8× Gli-binding site and chicken δ-crystalline promoter into the upstream of luc+ of pGL3 (Promega).
HEK293 cells were grown in D-MEM medium (Invitrogen) containing 10% fetal bovine serum in a 10 cm dish and pcDNA3.1/mShh-N was introduced into the cells using FuGENE6 (Roche Applied Science). Thereafter, the HEK293 cells were cultured in a carbon dioxide gas incubator at 37° C. for 24 hours, and the medium was exchanged with D-MEM medium (Invitrogen) containing 2% fetal bovine serum. After culturing for 48 hr, a culture supernatant containing recombinant type mouse Shh-N end fragment was obtained by filtration using a filter ([…]).
Using D-MEM (Invitrogen) containing 10% fetal bovine serum, expression plasmid pcDNA3.1 and Gli reporter plasmid (pGL3/δ-cry promoter, 8× Gli binding site) produced by the method of Experimental Example 1 were introduced into NIH-3T3 cells grown in a 10 cm dish by the use of FuGENE6 (Roche Applied Science).
After culture for 24 hr, the cells were recovered, suspended in D-MEM medium containing 10% fetal bovine serum and supplemented with Geneticin (Life Technologies Oriental, Inc.) to a final concentration of 500 μg/ml, diluted to 10^4 cells/ml, plated on a 96 well plate, and cultured in a carbon dioxide gas incubator at 37° C. to give Geneticin resistant transformed cell line. […]
NIH-3T3/Gli reporter cells cultured in D-MEM (Invitrogen) containing 10% fetal bovine serum were plated in a 96 well white plate at 1×10^4 cells/well, and cultured overnight in a carbon dioxide gas incubator at 37° C. […] Bright-Glo (Promega, 50 μl) was added, and the mixture was stirred, after which luciferase activity was measured by EnVision (PerkinElmer). The inhibition rate was calculated based on the luciferase activity of the control without addition of the compound as 100.

T1 sequence (P56726 33-793): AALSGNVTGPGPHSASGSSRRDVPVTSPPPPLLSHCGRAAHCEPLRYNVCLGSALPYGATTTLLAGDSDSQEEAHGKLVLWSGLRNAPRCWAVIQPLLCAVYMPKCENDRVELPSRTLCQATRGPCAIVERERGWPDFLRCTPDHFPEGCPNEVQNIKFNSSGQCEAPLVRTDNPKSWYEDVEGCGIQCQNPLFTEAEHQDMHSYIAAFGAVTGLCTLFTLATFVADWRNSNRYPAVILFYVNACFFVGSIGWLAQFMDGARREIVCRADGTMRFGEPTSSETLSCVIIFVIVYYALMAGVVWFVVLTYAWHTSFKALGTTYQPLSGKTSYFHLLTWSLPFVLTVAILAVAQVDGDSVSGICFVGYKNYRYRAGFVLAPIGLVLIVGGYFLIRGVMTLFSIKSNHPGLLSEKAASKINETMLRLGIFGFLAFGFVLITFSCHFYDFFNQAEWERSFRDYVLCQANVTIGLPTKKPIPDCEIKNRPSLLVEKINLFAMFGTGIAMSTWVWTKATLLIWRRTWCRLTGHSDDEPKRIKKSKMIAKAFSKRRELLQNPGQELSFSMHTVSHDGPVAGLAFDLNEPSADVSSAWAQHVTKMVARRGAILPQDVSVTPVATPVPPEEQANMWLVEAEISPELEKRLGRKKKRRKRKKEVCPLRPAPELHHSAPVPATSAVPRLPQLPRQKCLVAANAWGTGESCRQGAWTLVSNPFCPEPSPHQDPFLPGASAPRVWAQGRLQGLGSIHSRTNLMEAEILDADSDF

With `C=Cc1c(C(=O)NC2CCN(C(=O)CO)CC2)n(C)c2cc(CC)n(CC(=O)c3ccccc3)c(=O)c12` [Example 2, 3-ethenyl-6-ethyl-N-[1-(hydroxyacetyl)piperidin-4-yl]-1-methyl-4-oxo-5-(2-oxo-2-phenylethyl)-4,5-dihydro-1H-pyrrolo[3,2-c]pyridine-2-carboxamide] the inhibition at 1 µM was 100%.

Compound `CCNc1c(C(=O)NC2CCN(C(=O)CO)CC2)n(C)c2cc(CC)n(CC(=O)c3ccccc3)c(=O)c12` [Example 32, 6-ethyl-3-(ethylamino)-N-[1-(hydroxyacetyl)piperidin-4-yl]-1-methyl-4-oxo-5-(2-oxo-2-phenylethyl)-4,5-dihydro-1H-pyrrolo[3,2-c]pyridine-2-carboxamide] has an inhibition at 1 µM of 98%.

`CCc1c(C(=O)NC2CCN(C(=O)CO)CC2)n(C)c2cc(CC)n(CC(=O)c3ccccc3)c(=O)c12` [Example 1, 3,6-diethyl-N-[1-(hydroxyacetyl)piperidin-4-yl]-1-methyl-4-oxo-5-(2-oxo-2-phenylethyl)-4,5-dihydro-1H-pyrrolo[3,2-c]pyridine-2-carboxamide] gave an inhibition at 1 µM of 100%.
